Experimental data as given in patent publication US7534887B2, “Thiazoline derivative and use of the same” (Takeda Pharmaceutical Company Limited, priority 2003, dated 2009).
Where a name gives a salt, the structure may show the parent alone.

Target: human FXa (Homo sapiens, UniProt P00742)
Assay: Inhibitory action of human activated blood coagulation factor X (FXa)
Type: biochemical
Details: concentration inhibiting FXa activity by 50%; substrate S-2765, 37° C., absorbance at 405 nm
Experimental: (1) Inhibitory Action of Human Activated Blood Coagulation Factor X (FXa):
Test method: A solution (225 μL) of 0.05M tris-hydrochloric acid buffers (pH=8.3) containing 0.145 M of sodium chloride and 2 mM of calcium chloride, a test compound dissolved in dimethyl sulfoxide (5 μL) and human FXa (10 μL, 0.3 unit/ml) were added to a 96-well microplate and reacted at 37° C. for about 10 minutes, and then a substrate (10 μL, 3 mM, S-2765) was added to be reacted at 37° C. for 10 minutes. Then, after aqueous 50% acetic acid (25 μL) was added there to stop the reaction, the change of absorbance at 405 nm was measured by a microplatereader, and a concentration inhibiting FXa activity by 50% (IC50) was calculated.

Chain of human FXa (P00742 235-488 limits assumed): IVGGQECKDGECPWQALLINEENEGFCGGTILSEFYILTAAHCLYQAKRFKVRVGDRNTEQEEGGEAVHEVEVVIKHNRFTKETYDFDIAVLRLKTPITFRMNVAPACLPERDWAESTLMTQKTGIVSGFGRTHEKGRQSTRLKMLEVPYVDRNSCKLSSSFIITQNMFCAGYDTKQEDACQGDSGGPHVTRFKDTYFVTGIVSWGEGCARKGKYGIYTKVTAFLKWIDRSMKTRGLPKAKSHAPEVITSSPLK
Chain of human FXa (P00742 41-179 partner limits assumed): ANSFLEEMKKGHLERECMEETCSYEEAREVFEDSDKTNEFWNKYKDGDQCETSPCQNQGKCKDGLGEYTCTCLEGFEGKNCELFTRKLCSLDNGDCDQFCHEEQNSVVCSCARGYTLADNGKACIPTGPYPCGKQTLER

Row | IC50 | Compound
1 | 0.06 µM | Cn1cc(C2CCN(C(=O)CCS(=O)(=O)c3ccc4cc(Cl)ccc4c3)CC2)sc1=N [Example 58, 5-(1-(3-((6-Chloro-2-naphthyl)sulfonyl)propanoyl)-4-piperidinyl)-3-methyl-1,3-thiazol-2(3H)-imine]
2 | 0.011 µM | C/N=c1\sc(C2CCN(C(=O)CCS(=O)(=O)c3ccc4cc(Cl)ccc4c3)CC2)c(CO)n1C [Example 38]
3 | 0.0094 µM | C/N=c1\sc(C2CCN(C(=O)CCS(=O)(=O)c3ccc4cc(Cl)ccc4c3)CC2)c(C(=O)OC)n1C [Example 77, Methyl (2Z)-5-(1-(3-((6-chloro-2-naphthyl)sulfonyl)propanoyl)-1-piperidinyl)-3-methyl-2-(methylimino)-2,3-dihydro-1,3-thiazol-4-carboxylate]
4 | 0.014 µM | COC(=O)C1CN(CC2=CSC3=NCCN23)CCN1C(=O)CCS(=O)(=O)c1ccc2cc(Cl)ccc2c1 (stereo not shown) [Example 44, Methyl 1-(3-((6-chloro-2-naphthyl)sulfonyl)propanoyl)-4-(5,6-dihydroimidazo[2,1-b][1,3]thiazol-3-ylmethyl)piperazine-2-carboxylate]
5 | 0.047 µM | O=C(CCS(=O)(=O)c1ccc2cc(Cl)ccc2c1)N1CCC(/N=c2\sccn2CCO)CC1 [Example 92, 2-((2Z)-2-((1-(3-((6-Chloro-2-naphthyl)sulfonyl)propanoyl)-4-piperidinyl)imino)-1,3-thiazol-3(2H)-yl)ethanol]
6 | 0.057 µM | C/N=c1\scc(CN2CCN(C(=O)CCS(=O)(=O)c3ccc4cc(Cl)ccc4c3)CC2)n1C [Example 5, N-((2Z)-4-((4-(3-((6-Chloro-2-naphthyl)sulfonyl)propanoyl)-1-piperazinyl)methyl)-3-methyl-1,3-thiazol-2(3H)-ylidene)-N-methylamine dihydrochloride]
7 | 0.0083 µM | C/N=c1\sc(C2CCN(C(=O)CCS(=O)(=O)c3ccc4cc(Cl)ccc4c3)CC2)c(C(=O)O)n1C [Example 68, (2Z)-5-(1-(3-((6-Chloro-2-naphthyl)sulfonyl)propanoyl)-1-piperidinyl)-3-methyl-2-(methylimino)-2,3-dihydro-1,3-thiazole-4-carboxylic acid]
8 | 0.0067 µM | C/N=c1\sccn1CCC1CCN(C(=O)CCS(=O)(=O)c2ccc3cc(Cl)ccc3c2)CC1 [Example 83]
9 | 0.022 µM | Cn1c(CN2CCN(C(=O)CCS(=O)(=O)c3ccc4cc(Cl)ccc4c3)CC2)csc1=N [Example 12, 4-((4-(3-((6-Chloro-2-naphthyl)sulfonyl)propanoyl)-1-piperazinyl)methyl)-3-methyl-1,3-thiazol-2(3H)-imine dihydrochloride]

Row | Compound | IC50
10 | N-((2Z)-5-(1-(3-((6-Chloro-2-naphthyl)sulfonyl)propanoyl)-1-piperidinyl)-3-methyl-1,3-thiazol-2(3H)-ylidene)-N-methylamine [Example 46] | 0.03 µM
